According to patent US20030144339A1, “Indole derivatives as mcp-1 receptor antagonists” (priority 2000, published 2003):

Legend:
THP-1 cells [1] = experiment: hMCP-1 mediated chemotaxis of THP-1 cells; type: cell-based, human; conditions: 2 h at 37° C.
Method: In vitro chemotaxis assays were performed using the human monocytic cell line THP-1. Cell migration through polycarbonate membranes was measured by enumerating those passing through either directly by Coulter counting or indirectly by use of a colourimetric viability assay measuring the cleavage of a tetrazolium salt by the mitochondrial respiratory chain (Scudiero D. A. et al. 1988, Cancer Res., 48, 4827-4833).
Chemoattractants were introduced into a 96-well microtitre plate which forms the lower well of a chemotaxis chamber fitted with a PVP-free 5 μm poresize polycarbonate adhesive framed filter membrane (NeuroProbe MB series, Cabin John, Md. 20818, USA) according to the manufacturer's instructions. […] The plate was incubated at 37° C. for 3 h and the absorbance of the soluble formazan product was read on a microtitre plate reader at 450 nm. The data was input into a spreadsheet, corrected for any random migration in the absence of chemoattractant and the average absorbance values, standard error of the mean, and significance tests were calculated. bMCP-1 induced concentration dependent cell migration with a characteristic biphasic response, maximal 0.5-1.0 nm.

THP-1 cells [2] = experiment: MCP-1 mediated calcium flux in THP-1 cells; type: cell-based, human; conditions: FURA-2, stimulation with hMCP-1, read-out: EC50 of rise in [Ca2+]i
Method: The human monocytic cell line TIP-1 was grown in a synthetic cell culture medium RPM 1640 supplemented with 10% foetal calf serum, 6 mM glutamine and Penicillin-Streptomycin (at 50 μg streptomycin/ml, Gibeo BRL). THP-1 cells were washed in HBSS (lacking Ca^2+ and Mg^2+)+1 mg/ml BSA and resuspended in the same buffer at a density of 3×10^6 cells/ml. The cells were then loaded with […] FURA-2/AM for 30 mrin at 37° C., washed twice in HBSS, and resuspended at 1×10^6 cells/ml. TrP-1 cell suspension (0.9 ml) was added to a 5 ml disposable cuvette containing a magnetic stirrer bar and 2.1 ml of prewarmed (37° C.) HBSS containing 1 mg/ml BSA, 1 mM MgCl2 and 2 mM CaCl2. The cuvette was placed in a fluorescence spectrophotometer (Perkin Elner, Norwalk, Conn.) and preincubated for 4 min at 37° C. with stirring. Fluorescence was recorded over 70 sec and cells were stimulated by addition of hMCP-1 to the cuvette after 10 sec. [Ca^2+]i was measured by excitation at 340 nm and 380 nm alternately and subsequent measurement of the intensity of the fluorescence emission at 510 nm.
where the Kd for FURA-2 Ca^2+ complex at 37° C. was taken to be 224 nm. […]

MCP-1 receptor B (CCR2B) = target: T1, MCP-1 receptor B (CCR2B) (Homo sapiens, UniProt P41597); experiment: hMCP-1 receptor binding assay (125I-MCP-1, CHO-CCR2B cell membranes)
T1 construct: expressed in transfected cells; membrane fragments
T1 sequence (P41597 1-360 isoform P41597-2): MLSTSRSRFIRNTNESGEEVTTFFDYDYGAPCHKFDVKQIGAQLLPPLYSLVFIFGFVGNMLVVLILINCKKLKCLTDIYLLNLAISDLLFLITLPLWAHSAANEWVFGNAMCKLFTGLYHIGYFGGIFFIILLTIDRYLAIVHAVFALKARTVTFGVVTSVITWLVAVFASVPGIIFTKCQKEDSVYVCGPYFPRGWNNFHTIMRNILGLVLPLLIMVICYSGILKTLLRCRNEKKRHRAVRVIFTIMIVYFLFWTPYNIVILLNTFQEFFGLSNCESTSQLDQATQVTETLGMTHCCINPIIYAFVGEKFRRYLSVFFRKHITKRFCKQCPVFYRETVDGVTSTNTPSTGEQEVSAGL
Source text: The MCP-1 receptor B (CCR2B) cDNA was cloned by PCR from ThP-1 cell RNA using suitable oligonucleotide primers based on the published MCP-1 receptor sequences (Charo et al., 1994, Proc. Natl. Acad. Sci. USA, 91, 2752). The resulting PCR products were cloned into vector PCR-II™ (In Vitrogen, San Diego, Calif.). Error free CCR2B cDNA was subcloned as a Hind III-Not I fragment into the eukaryotic expression vector pCDNA3 (In Vitrogen) to generate pCDNA3/CC-CKR2A and pCDNA3/CCR2B respectively.
Linearised pCDNA3/CCR2B DNA was transfected into CHO-K1 cells by calcium phosphate precipitation (Wigler et al., 1979, Cell, 16, 777). Transfected cells were selected by the addition of Geneticin Sulphate (G418, Gibeo BRL) at 1 mg/ml, 24 hours after the cells had been transfected. Preparation of RNA and Northern blotting were carried out as described previously (Needham et al., 1995, Prot. Express. Purific., 6, 134). CHO-K1 clone 7 (CHO-CCR2B) was identified as the highest MCP-1 receptor B expresser.
CHO-CCR2B cells were grown in DMEM supplemented with 10% foetal calf serum, 2 mM glutamine, 1× Non-Essential Amino Acids, 1× Hypoxantiine and Thymidine Supplement and Penicillin-Streptomycin (at 50 μg streptomycin/ml, Gibco BRL). Membrane fragments were prepared using cell lysis/differential centrifuigation methods as described previously (Siciliano et al., 1990, J. Biol. Chem., 265, 19658). […]

**Q.** For “MCP-1: Human Monocyte Chemoattractant Protein-1, a C-C chemokine; natural ligand of the CCR2 receptor, used as assay ligand/stimulus”, which “concentration giving maximal cell migration (biphasic response)” value (THP-1 cells [1]) is on record?
**A.** Its value is 0.5-1.0 nm.

**Q.** What about the EC50 (THP-1 cells [2]) of the same substance?
**A.** The EC50 was about 2 nM.

**Q.** And the IC50 (MCP-1 receptor B (CCR2B); cold competition with 100 pM 125I-labeled MCP-1, room temperature, read-out: IC50 of MCP-1 binding to CHO-CCR2B membrane fragments)?
**A.** Its IC50 is 0.11 nM.

**Q.** And the Kd (MCP-1 receptor B (CCR2B); equilibrium binding, room temperature, read-out: Kd of MCP-1 binding to CHO-CCR2B membrane fragments)?
**A.** The Kd was 0.12 nM.
